Assay results from US20250320189A1, “NEW DERIVATIVES FOR TREATING TRPM3 MEDIATED DISORDERS” (Katholieke Universiteit Leuven, priority 2022, published 2025).

Legend:
rat pain model = details: cited from earlier work
[1] = tested on: wild type mice / knock-out TRPM3 mice; details: wild type mice vs knock-out TRPM3 mice; cited from earlier work
TRPM3 = TRPM3 (Homo sapiens, UniProt Q9HCF6); details: cited from earlier work
[2] = biological target: T1, mouse TRPM3α2 (mTRPM3) ion channel (Mus musculus, UniProt J9SQF3); test: Monitoring the TRPM3 ion channel driven Ca2+ uptake (Fluo-4 AM assay); type: cell-based; details: mTRPM3alpha2 overexpressing flip-in HEK293 cells, stimulated with Pregnenolone sulfate (PS) 50 μM
T1 construct: expressed in transfected cells; host or cells: flip-in (Flp-In) HEK293
T1 sequence (J9SQF3 1-1709 isoform J9SQF3-12): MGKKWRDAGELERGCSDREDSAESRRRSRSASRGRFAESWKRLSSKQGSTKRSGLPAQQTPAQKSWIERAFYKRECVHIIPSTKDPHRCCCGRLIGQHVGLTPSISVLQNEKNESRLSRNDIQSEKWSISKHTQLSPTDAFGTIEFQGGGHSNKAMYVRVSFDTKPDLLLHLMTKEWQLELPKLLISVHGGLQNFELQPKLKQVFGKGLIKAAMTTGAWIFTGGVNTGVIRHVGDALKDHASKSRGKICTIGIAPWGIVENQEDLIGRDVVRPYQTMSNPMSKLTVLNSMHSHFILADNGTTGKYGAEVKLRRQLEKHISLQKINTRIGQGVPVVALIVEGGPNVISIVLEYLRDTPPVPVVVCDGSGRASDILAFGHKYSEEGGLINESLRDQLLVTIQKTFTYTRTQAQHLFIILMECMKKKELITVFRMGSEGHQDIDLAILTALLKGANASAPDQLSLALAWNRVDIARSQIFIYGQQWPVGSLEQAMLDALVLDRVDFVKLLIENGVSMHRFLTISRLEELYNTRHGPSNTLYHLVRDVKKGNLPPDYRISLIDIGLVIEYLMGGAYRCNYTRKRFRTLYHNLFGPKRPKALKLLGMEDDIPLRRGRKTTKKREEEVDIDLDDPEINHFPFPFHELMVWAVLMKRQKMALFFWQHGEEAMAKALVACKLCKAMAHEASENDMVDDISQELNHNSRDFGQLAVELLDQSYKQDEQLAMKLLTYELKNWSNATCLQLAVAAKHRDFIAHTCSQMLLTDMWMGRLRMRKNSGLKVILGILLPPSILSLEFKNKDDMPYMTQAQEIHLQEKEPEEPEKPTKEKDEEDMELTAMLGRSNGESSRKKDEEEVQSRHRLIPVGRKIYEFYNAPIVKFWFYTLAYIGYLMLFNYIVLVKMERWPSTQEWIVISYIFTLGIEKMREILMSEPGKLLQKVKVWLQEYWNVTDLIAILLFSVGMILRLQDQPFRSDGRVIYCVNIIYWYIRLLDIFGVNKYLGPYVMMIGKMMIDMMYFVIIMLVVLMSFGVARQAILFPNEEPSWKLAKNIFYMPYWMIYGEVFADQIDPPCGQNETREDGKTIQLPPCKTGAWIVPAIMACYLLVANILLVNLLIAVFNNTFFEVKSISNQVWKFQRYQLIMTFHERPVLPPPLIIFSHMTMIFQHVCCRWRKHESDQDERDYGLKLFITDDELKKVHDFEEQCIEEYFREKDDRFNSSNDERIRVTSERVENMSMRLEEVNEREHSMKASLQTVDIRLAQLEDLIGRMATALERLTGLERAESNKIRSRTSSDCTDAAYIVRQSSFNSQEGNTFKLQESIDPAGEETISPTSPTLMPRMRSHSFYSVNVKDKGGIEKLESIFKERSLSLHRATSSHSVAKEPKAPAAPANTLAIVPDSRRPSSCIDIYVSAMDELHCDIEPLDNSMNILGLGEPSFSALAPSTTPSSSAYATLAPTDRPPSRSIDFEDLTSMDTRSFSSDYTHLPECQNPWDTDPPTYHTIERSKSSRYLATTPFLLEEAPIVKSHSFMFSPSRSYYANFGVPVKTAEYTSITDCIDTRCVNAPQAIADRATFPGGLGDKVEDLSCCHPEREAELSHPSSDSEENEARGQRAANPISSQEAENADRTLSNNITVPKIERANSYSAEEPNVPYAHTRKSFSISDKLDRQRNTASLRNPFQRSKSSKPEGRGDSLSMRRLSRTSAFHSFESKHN
Summary of the method: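 Flp-In HEK293 cells overexpressing mTRPM3α2 were loaded with Fluo-4 AM and added to plates holding compound plus 50 μM pregnenolone sulfate in Ca²⁺-containing Krebs buffer. Fluorescence (ex 485/em 535) was read right after cell addition. Inhibition was calculated against vehicle-stimulated and positive-control-inhibitor wells, with IC50 derived from it.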

TRPM3, sequence (Q9HCF6 whole entry, species assumed): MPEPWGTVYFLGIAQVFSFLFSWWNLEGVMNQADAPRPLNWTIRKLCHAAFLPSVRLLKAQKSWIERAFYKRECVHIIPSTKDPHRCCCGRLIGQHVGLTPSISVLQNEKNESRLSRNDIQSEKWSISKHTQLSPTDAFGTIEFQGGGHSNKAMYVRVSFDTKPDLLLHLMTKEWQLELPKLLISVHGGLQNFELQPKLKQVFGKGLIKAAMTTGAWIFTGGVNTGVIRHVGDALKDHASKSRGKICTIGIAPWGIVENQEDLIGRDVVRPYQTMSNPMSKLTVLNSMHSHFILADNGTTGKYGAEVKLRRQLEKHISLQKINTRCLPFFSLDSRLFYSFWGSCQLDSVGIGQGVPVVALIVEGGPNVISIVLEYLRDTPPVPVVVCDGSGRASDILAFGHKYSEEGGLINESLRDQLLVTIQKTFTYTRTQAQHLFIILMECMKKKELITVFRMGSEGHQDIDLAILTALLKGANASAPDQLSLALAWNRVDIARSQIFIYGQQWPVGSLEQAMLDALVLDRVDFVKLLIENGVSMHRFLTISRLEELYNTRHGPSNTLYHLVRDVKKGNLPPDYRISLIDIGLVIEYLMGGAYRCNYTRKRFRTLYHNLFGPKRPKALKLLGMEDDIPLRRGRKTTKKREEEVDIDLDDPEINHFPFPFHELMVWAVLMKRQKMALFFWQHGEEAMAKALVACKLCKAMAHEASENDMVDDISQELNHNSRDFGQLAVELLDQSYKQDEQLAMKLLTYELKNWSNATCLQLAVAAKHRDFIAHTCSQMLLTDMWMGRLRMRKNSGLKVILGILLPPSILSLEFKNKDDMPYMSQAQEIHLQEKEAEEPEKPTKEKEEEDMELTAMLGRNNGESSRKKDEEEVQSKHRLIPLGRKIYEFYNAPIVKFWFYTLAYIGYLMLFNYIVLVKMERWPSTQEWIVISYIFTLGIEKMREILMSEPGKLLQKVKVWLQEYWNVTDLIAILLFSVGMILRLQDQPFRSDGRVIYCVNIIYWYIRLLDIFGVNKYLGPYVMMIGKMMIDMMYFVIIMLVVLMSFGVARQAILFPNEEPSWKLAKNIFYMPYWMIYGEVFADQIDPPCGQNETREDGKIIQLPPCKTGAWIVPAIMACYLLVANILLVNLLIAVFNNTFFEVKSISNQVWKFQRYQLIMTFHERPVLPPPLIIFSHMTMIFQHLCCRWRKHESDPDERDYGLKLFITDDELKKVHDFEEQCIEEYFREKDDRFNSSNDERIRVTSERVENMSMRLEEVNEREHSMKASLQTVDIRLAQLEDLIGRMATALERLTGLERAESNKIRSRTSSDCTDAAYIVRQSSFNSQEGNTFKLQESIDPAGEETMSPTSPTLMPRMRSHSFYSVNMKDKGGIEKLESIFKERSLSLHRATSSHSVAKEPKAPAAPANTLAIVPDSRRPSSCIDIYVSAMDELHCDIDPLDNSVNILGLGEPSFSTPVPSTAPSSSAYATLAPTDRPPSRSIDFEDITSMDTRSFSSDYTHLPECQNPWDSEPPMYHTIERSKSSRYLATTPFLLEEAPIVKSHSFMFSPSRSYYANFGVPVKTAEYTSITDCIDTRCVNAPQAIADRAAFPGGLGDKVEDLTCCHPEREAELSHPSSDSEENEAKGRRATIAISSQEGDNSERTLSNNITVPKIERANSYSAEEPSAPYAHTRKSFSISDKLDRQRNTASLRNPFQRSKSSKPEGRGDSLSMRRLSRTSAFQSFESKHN

Row | IC50 [2] [nM] | Compound | further results
1 | – | O=C1C[C@@H](c2ccc(O)cc2)Oc2cc(O)ccc21 [Liquiritigenin] | mechanical and cold hyperalgesia (rat pain model): decrease mechanical and cold hyperalgesia
2 | – | pregnenolone sulfate | evoked pain [1]: evoked pain in wild type mice but not in knock-out TRPM3 mice; activator of TRPM3 (TRPM3): potent known activator
3 | < 1000 | Cc1oc2ccc(OCC3(C(F)F)CC3)cc2c1C(=O)NC(C)(CO)C(N)=O (single isomer, unassigned) [Cpd 014 - En1, 2-[(5-{[1-(difluoromethyl)cyclopropyl]methoxy}-2-methyl-1-benzofuran-3-yl)formamido]-3-hydroxy-2-methylpropanamide] | –
4 | < 1000 | Cc1oc2ccc(OCC3CC3(F)F)cc2c1C(=O)N[C@@H](CO)C(N)=O (single isomer, unassigned) [Cpd 002 - En1] | –
5 | 1000 to 20000 | Cc1oc2ccc(OCC3CCC3)cc2c1C(=O)NC1CCNCC1(F)F (single isomer, unassigned) [Cpd 019 - En1, 5-(cyclobutylmethoxy)-N-(3,3-difluoropiperidin-4-yl)-2-methyl-1-benzofuran-3-carboxamide] | –
6 | 1000 to 20000 | Cc1oc2ccc(OCC3CC3)cc2c1C(=O)NC1CCOCC1 [Cpd 022, 5-(cyclopropylmethoxy)-2-methyl-N-(oxan-4-yl)-1-benzofuran-3-carboxamide] | –
7 | 1000 to 20000 | Cc1oc2ccc(OCC(C)(C)C)cc2c1C(=O)NC1CCNCC1(F)F (single isomer, unassigned) [Cpd 043-En2, N-(3,3-difluoropiperidin-4-yl)-5-(2,2-dimethylpropoxy)-2-methyl-1-benzofuran-3-carboxamide] | –
8 | < 1000 | Cc1oc2ccc(OCC3CC3)cc2c1C(=O)NC1(CO)CCOCC1 [Cpd 030, 5-(cyclopropylmethoxy)-N-[4-(hydroxymethyl)oxan-4-yl]-2-methyl-1-benzofuran-3-carboxamide] | –
9 | < 1000 | Cc1oc2ccc(OCC3(C(F)(F)F)CC3)cc2c1C(=O)NC(C)(CO)C(N)=O (single isomer, unassigned) [Cpd 048 - En2, 3-hydroxy-2-methyl-2-[(2-methyl-5-{[1-(trifluoromethyl)cyclopropyl]methoxy}-1-benzofuran-3-yl)formamido]propanamide] | –
10 | 1000 to 20000 | Cc1oc2ccc(OCC3(C(F)F)CC3)cc2c1C(=O)NC1(C(N)=O)CCOC1 (single isomer, unassigned) [Cpd 036 - En1, N-(3-carbamoyloxolan-3-yl)-5-{[1-(difluoromethyl)cyclopropyl]methoxy}-2-methyl-1-benzofuran-3-carboxamide] | –
11 | < 1000 | Cc1oc2ccc(OCC3CCC3)cc2c1C(=O)N[C@@H](CO)C(N)=O [Cpd 006, (2S)-2-{[5-(cyclobutylmethoxy)-2-methyl-1-benzofuran-3-yl]formamido}-3-hydroxypropanamide] | –
12 | < 1000 | Cc1oc2ccc(OCC3CCC3)cc2c1C(=O)NC(C)(CO)C(N)=O (single isomer, unassigned) [Cpd 053 - En2, 2-{[5-(cyclobutylmethoxy)-2-methyl-1-benzofuran-3-yl]formamido}-3-hydroxy-2-methylpropanamide] | –
13 | < 1000 | Cc1oc2ccc(OCC3CC3)cc2c1C(=O)NC1(CO)CCC1 [Cpd 025, 5-(cyclopropylmethoxy)-N-[1-(hydroxymethyl)cyclobutyl]-2-methyl-1-benzofuran-3-carboxamide] | –
14 | < 1000 | Cc1oc2ccc(OCC34CC(C)(C3)C4)cc2c1C(=O)NC(C)(CO)C(N)=O (single isomer, unassigned) [Cpd 052 - En1, 3-hydroxy-2-methyl-2-{[2-methyl-5-({3-methylbicyclo[1.1.1]pentan-1-yl}methoxy)-1-benzofuran-3-yl]formamido}propenamide] | –
15 | 1000 to 20000 | Cc1oc2ccc(OCC3CC3(F)F)cc2c1C(=O)NC1CCNCC1(F)F (single isomer, unassigned) [Cpd 031 - En3, 5-[(2,2-difluorocyclopropyl)methoxy]-N-(3,3-difluoropiperidin-4-yl)-2-methyl-1-benzofuran-3-carboxamide] | –
16 | < 1000 | Cc1oc2ccc(OCC3CC3(F)F)cc2c1C(=O)NC(CO)CC(F)(F)F (single isomer, unassigned) [Cpd 057 - En2, 5-[(2,2-difluorocyclopropyl)methoxy]-2-methyl-N-(4,4,4-trifluoro-1-hydroxybutan-2-yl)-1-benzofuran-3-carboxamide] | –
17 | < 1000 | Cc1oc2ccc(OCC3CC3)cc2c1C(=O)N[C@@H](C)C(N)=O [Cpd 010, (2S)-2-{[5-(cyclopropylmethoxy)-2-methyl-1-benzofuran-3-yl]formamido}propanamide] | –
18 | < 1000 | Cc1oc2ccc(OCC(F)F)cc2c1C(=O)N[C@@H](CO)C(N)=O [Cpd 038, (2S)-2-{[5-(2,2-difluoroethoxy)-2-methyl-1-benzofuran-3-yl]formamido}-3-hydroxypropanamide] | –
19 | > 20000 | Cc1oc2ccc(OCC3(C(F)(F)F)CC3)cc2c1C(=O)NC1(C)CCCNC1=O (single isomer, unassigned) [Cpd 061 - En1, 2-methyl-N-(3-methyl-2-oxopiperidin-3-yl)-5-{[1-(trifluoromethyl)cyclopropyl]methoxy}-1-benzofuran-3-carboxamide] | –
20 | < 1000 | Cc1oc2ccc(OCC3(C(F)F)CC3)cc2c1C(=O)N[C@@H](CO)C(N)=O [Cpd 003, (2S)-2-[(5-{[1-(difluoromethyl)cyclopropyl]methoxy}-2-methyl-1-benzofuran-3-yl)formamido]-3-hydroxypropanamide] | –
21 | 1000 to 20000 | Cc1oc2ccc(OCC3CC3)cc2c1C(=O)NC1(CO)CCCNC1=O (single isomer, unassigned) [Cpd 027 - En2, 5-(cyclopropylmethoxy)-N-[3-(hydroxymethyl)-2-oxopiperidin-3-yl]-2-methyl-1-benzofuran-3-carboxamide] | –
22 | 1000 to 20000 | Cc1oc2ccc(OCC3CC3(F)F)cc2c1C(=O)NC1CCNCC1(F)F (single isomer, unassigned) [Cpd 031 - En1, 5-[(2,2-difluorocyclopropyl)methoxy]-N-(3,3-difluoropiperidin-4-yl)-2-methyl-1-benzofuran-3-carboxamide] | –
23 | < 1000 | Cc1oc2ccc(OCC3CC3)cc2c1C(=O)NC(C)(CO)C(N)=O (single isomer, unassigned) [Cpd 017 - En1, 2-{[5-(cyclopropylmethoxy)-2-methyl-1-benzofuran-3-yl]formamido}-3-hydroxy-2-methylpropanamide] | –
24 | 1000 to 20000 | Cc1oc2ccc(OCC3CC3)cc2c1C(=O)NC(CO)C(N)C(F)(F)F (single isomer, unassigned) [Cpd 056 - En1, N-[(2)-3-amino-4,4,4-trifluoro-1-hydroxybutan-2-yl]-5-(cyclopropylmethoxy)-2-methyl-1-benzofuran-3-carboxamide] | –
25 | < 1000 | Cc1oc2ccc(OCC3CC3(C)C)cc2c1C(=O)NC(C)(CO)C(N)=O (single isomer, unassigned) [Cpd 049 - En2, 2-({5-[(2,2-dimethylcyclopropyl)methoxy]-2-methyl-1-benzofuran-3-yl}formamido)-3-hydroxy-2-methylpropanamide] | –
